Laboratory results published in patent US20230159468A1, “NOVEL FORMS OF PRACINOSTAT DIHYDROCHLORIDE” (Macfarlan Smith Limited, priority 2020, published 2023).
Values after ≈ are worked out from the molar mass of the structure shown. Values joined by “and” are separate entries in the source; they are usually repeats but may differ in a detail not shown here. Equal entries are not always repeated. Where two headings read alike, the source gives them in different places. Values belong to the molecule of their own block, whether it stands above or below them.

Assays:
Type in all cases: physicochemical
[1] = Solubility studies in pH buffer at 37° C. with HPLC analysis; details: for solubility at 1 h / solubility at 4 h: pH buffer, 37 °C, thermodynamic from solid; for Observation-1 hr / Observation-4 hr: ~6 mg in 5 mL
Protocol: Solubility studies are conducted on the pracinostat diHCl co-crystal with fumaric acid according to the following method:
1. Weigh out ˜6 mg pracinostat diHCl co-crystal with fumaric acid in 5 mL pH buffer;
2. Stir samples at 37° C.;
3. After 1 hour, test and record pH, then remove a 2 mL sample for HPLC analysis;
4. Adjust pH of remaining solution using 0.2M NaOH or HCl, if necessary;
5. After 4 hours, test and record pH, then remove a 2 mL sample for HPLC analysis.
The solubility data are collected using an Agilent 1100 Series HPLC system and analyzed using Chemstation software. The method details are listed below.

[2] = Solubility in solvent mixture of isopropyl alcohol and water; details: organic solvent or mixture, isopropyl alcohol:water about 8:1 (v/v), about 58° C.
From the text: In one embodiment, the volume ratio of isopropyl alcohol to water in the solvent mixture is about 7-9:1; particularly about 8:1. In one embodiment, the solution of pracinostat diHCl is a saturated solution. […] Another embodiment optionally further comprises filtering the combination of pracinostat diHCl and solvent mixture to ensure no particles remain, i.e., to obtain the solution of pracinostat diHCl. In a particular embodiment, the weight to volume ratio of pracinostat diHCl to the solvent mixture is about 84-104 mg:1 mL; particularly about 94 mg:1 mL, wherein if the pracinostat diHCl is not fully dissolved in the solvent mixture, the combination of pracinostat diHCl and solvent mixture is filtered to obtain the solution of pracinostat diHCl. In one embodiment, the weight to volume ratio of Eudragit RS PO to the solution of pracinostat diHCl is about 3.75-6.25 mg:1 mL. In one embodiment, the weight ratio of Eudragit RS PO to pracinostat diHCl is about 1 mg: 14-16 mg. Another embodiment further comprises applying heating during the combining or using a solvent mixture that is heated. In another embodiment, the heating occurs at about 50-70° C. (particularly about 60° C.), or the solvent mixture is heated to about 50-70° C. (particularly about 60° C.). In one embodiment, the cooling is to about 0-10° C., particularly to about 5° C. […]

[3] = Dynamic vapor sorption (DVS) with XRPD analysis post-DVS; details: for Solid form by XRPD analysis post-DVS: after DVS; for DVS weight change / Hygroscopicity by DVS: between 0-90% RH
From the text: Techniques for characterizing crystal and amorphous forms include but are not limited to differential scanning calorimetry (DSC), thermal gravimetric analysis (TGA), dynamic vapor sorption (DVS), X-ray powder diffractometry (XRPD), single crystal X-ray diffraction (SCXRD), proton nuclear magnetic resonance (^1H-NMR), Fourier transform infrared spectroscopy (FTIR Spectroscopy), and Optical Microscopy.

[4] = Stability studies at 40° C./75% RH, evidenced by XRPD; details: open vial covered with Kimwipes and sealed vial
[5] = starting pH 1.75 buffer, single experiments
[6] = starting pH 7.26 buffer, single experiments

SMILES: CCCCc1nc2cc(/C=C/C(=O)NO)ccc2n1CCN(CC)CC [pracinostat diHCl, (E)-3-(2-Butyl-1-(2-(diethylamino)ethyl)-1H-benzo[d]imidazol-5-yl)-N-hydroxyacrylamide]
solubility [2]: ~82.6 mg/mL

SMILES: CCCCc1nc2cc(/C=C/C(=O)NO)ccc2n1CCN(CC)CC [pracinostat diHCl co-crystal with glycine]
Solid form by XRPD analysis post-DVS [3]: remains unchanged
DVS weight change [3]: ~8.0%
Hygroscopicity by DVS [3]: hygroscopic

Results, then the molecule that gave them:

solubility at 1 h ([1]; pH 1.75, simulated gastric fluid, starting pH 1.75 buffer, single experiments, read-out: Solubility (mg/mL) 1 hr): > 1.07 mg/mL
solubility at 4 h ([1]; pH 1.75, simulated gastric fluid, starting pH 1.75 buffer, single experiments, read-out: Solubility (mg/mL) 4 hr): > 1.08 mg/mL
solubility at 1 h ([1]; pH 7.26, aqueous buffer, starting pH 7.26 buffer, average of Exp. 4-6, read-out: Avg. Solubility ± STD (mg/mL) 1 hr): 0.16 ± 0.01 mg/mL (≈ 446 µM)
solubility at 1 h ([1]; pH 7.26, aqueous buffer, starting pH 7.26 buffer, single experiments, read-out: Solubility (mg/mL) 1 hr): 0.14 mg/mL (≈ 391 µM)
solubility at 4 h ([1]; pH 7.26, aqueous buffer, starting pH 7.26 buffer, average of Exp. 4-6, read-out: Avg. Solubility ± STD (mg/mL) 4 hr): 0.1 ± 0.02 mg/mL (≈ 279 µM)
solubility at 4 h ([1]; pH 7.26, aqueous buffer, starting pH 7.26 buffer, single experiments, read-out: Solubility (mg/mL) 4 hr): 0.08 mg/mL (≈ 223 µM)
SMILES: CCCCc1nc2cc(/C=C/C(=O)NO)ccc2n1CCN(CC)CC

Solid form by XRPD analysis post-DVS [3]: not stable
DVS weight change [3]: ~12%
Hygroscopicity by DVS [3]: hygroscopic
SMILES: CCCCc1nc2cc(/C=C/C(=O)NO)ccc2n1CCN(CC)CC [pracinostat diHCl co-crystal with L-arginine]

Solid form by XRPD analysis post-DVS [3]: remains unchanged
DVS weight change [3]: ~1.7%
Hygroscopicity by DVS [3]: slightly hygroscopic
Time stable (solid form, by XRPD) [4]: at least 9 months
Solubility (mg/mL) 1 hr [1, 5]: >0.75 mg/mL and >0.98 mg/mL
Solubility (mg/mL) 4 hr [1, 5]: >0.81 mg/mL and >0.98 mg/mL
Observation-1 hr ([1]; starting pH 1.75 buffer): Clear
Observation-4 hr ([1]; starting pH 1.75 buffer): Clear
Solubility (mg/mL) 1 hr [1, 6]: 0.16 mg/mL and 0.17 mg/mL
Solubility (mg/mL) 4 hr [1, 6]: 0.12 mg/mL and 0.09 mg/mL
Observation-1 hr ([1]; starting pH 7.26 buffer): Cloudy
Observation-4 hr ([1]; starting pH 7.26 buffer): Cloudy
SMILES: CCCCc1nc2cc(/C=C/C(=O)NO)ccc2n1CCN(CC)CC [pracinostat diHCl co-crystal with fumaric acid]
